Assay results published in patent EP4585599A1, “NITROGEN-CONTAINING FUSED RING COMPOUND, INTERMEDIATE THEREOF, PREPARATION METHOD THEREFOR AND USE THEREOF” (Hangzhou Synrx Therapeutics Biomedical Technology Co., Ltd., priority 2022, dated 2024).
Converted amounts (≈) assume the structure as drawn. “And” between values parts separate entries of the source, which are not always exact repeats. Identical values can stand only once. Like-named read-outs stand apart in the source and are kept apart here.

Tests used:
[1] = cells; conditions: Homo sapiens, DLD-1, 240 h
[2] = read-out: Cell viability assay IC50
[3] = biological target: T1, helicase domain of the Pol θ protein (Homo sapiens, UniProt O75417); assay: Biochemical Activity Assay (ADP Glo Assay) of Pol θ inhibitor, ATPase activity
T1 construct: The helicase domain of the Pol θ protein was purified from insect protein expression system; made in house; host or cells: insect protein expression system

[4] = Solubility assay; conditions: phosphate buffer, pH 7.4, aqueous buffer, kinetic from dmso stock
Method: 1) Prepare 0.1 M Na2PO4 buffer (pH 7.4): 11 g of Na2HPO4 (FW: 141.96) and 3.5 g of NaH2PO4_2H2O (FW: 156.03) were added to 1L of Mili-Q water, with pH adjusted to 7.4 using phosphoric acid or sodium hydroxide. 2) 10 µL of the compound to be tested (concentration: 10 mM in DMSO) was added to 990 µL of Na2PO4 buffer (final DMSO concentration: 1%) prepared in Step 1). 3) The sample tube was shaken at room temperature for 2 hours (1000 rpm/min). 4) Prepare the calibration curve: a) Prepare 300 µM spiking solution (SS): 6 µL (10 mM in DMSO) of the stock solution of the compound to be tested was added to 194 µL of MeOH/ACN (4:1); and b) Draw the standard curve.
5) The samples were centrifuged (10 min, 12,000 rpm) to precipitate insoluble particles. The supernatant was filtered with a 0.22 µm filter membrane, and then transferred to a new centrifuge tube. 6) The supernatant was diluted 10-fold with 100 mM buffer. The supernatant (10 µL) was added to the buffer (100 mM, 90 µL) and diluted 10-fold. 7) The sample was prepared under LC-MS/MS (API 4000) detection.
10 µL of the sample (10-fold dilution) and a standard curve sample were added to 400 µL of (MeOH: ACN=1:1) solution, and detected on the instrument, and the solubility value was calculated according to the standard curve.

[5] = Mouse PK assay after oral administration; conditions: for MRT / bioavailability / half-life: male, ICR, mouse, po; for MRT / bioavailability / half-life / Area under curve (0-t; hr * ng/mL) / Peak concentration: plasma; for Time to peak / Area under curve (0-t; hr * ng/mL) / Peak concentration: mice, oral
Method: The objective of this experiment was to study the pharmacokinetics of the test compound in ICR mice (male, 18-22 g, 4-6 weeks old, Beijing Vital River Laboratory Animal Technology Co., Ltd.) after oral administration. The specific experimental procedures were as follows: • 1) The compound was dissolved in 5% DMSO + 40% PEG + 20% (10% TPGS) in water + 35% water at a concentration of 0.5 mg/mL, and then administered orally (5 mL/Kg); and • 2) Blood samples were collected, with 0.03 mL collected at 0.25 h, 0.5 h, 1 h, 2 h, 4 h, 8 h, and 24 h, and EDTA-K2 was added. […] The blood was centrifuged for 5 min at 4000 g in a centrifuge at 4°C to collect plasma. Plasma samples were aliquoted into clean polyethylene microcentrifuge tubes and then stored in a freezer at -75 ± 15°C before analysis; and • 3) Samples were analyzed, and the concentration of the compound in each plasma sample was analyzed by LC-MS/MS. For plasma measurements, pharmacokinetic parameters were calculated using WinNonlin (PhoenixTM, version 8.3) or other similar software.

[6] = in vitro; conditions: mouse, microsomes, pH 7.4
Method: (§1) a) Phosphate buffer solution (PBS): 100 mM, pH=7.4±0.1.
(§2) 73.21 g of dipotassium phosphate trihydrate K2HPO4·3H2O (MW=228.22) and 10.78 g of potassium dihydrogen phosphate KH2PO4 (MW=136.09) were dissolved in 4000 mL of pure water, with pH adjusted to 7.4 ± 0.1 using phosphoric acid or potassium hydroxide.
(§3) b) Microsome working solution: 1.0 mg/mL.
(§4) The purchased mouse liver microsomes (IPHASE, Cat. No.: 0121E1.01, Lot. No.: 22F001) were of 20 mg/mL (10 mg, 0.5 mL), with 225 µL added to 4275 µL of PBS solution to prepare 1.0 mg/mL microsome working solution.
(§5) (Note whether the precipitation occurred) • III, 200 µL of the 40 mM NADPH stock solution, 2.0 mL of the 12 mM magnesium chloride stock solution, and 1.80 mL of the PBS solution were used to prepare the working solution of the NADPH regeneration system, containing the 2 mM NADPH solution and the 6 mM magnesium chloride mixture.
(§6) d) Stop solution: containing 200 ng/mL tolbutamide acetonitrile solution. • I, 6.006 mg of tolbutamide (MV=270.35, 99.9%) solids were weighed, and 30 mL of acetonitrile was added to prepare the 200 µg/mL of tolbutamide stock solution. • II, 500 mL of acetonitrile was added to 500 µL of the 200 µg/mL tolbutamide stock solution to obtain the tolbutamide acetonitrile solution with a concentration of 200 ng/mL.
(§7) e) Test sample/reference working solution: 100 µM test sample/reference working solution • I, 1 mL of 1.0 mg/mL testosterone (MV=288.42) solution was purchased, and 155.8 µL of ACN was added to prepare a testosterone stock solution with a concentration of 3 mM. • II, 1450 µL of acetonitrile was added to 50 µL of the 3 mM testosterone stock solution to prepare the 100 µM testosterone working solution. • III, 6.98 mg of propafenone hydrochloride was weighed, and 1.8433 mL of acetonitrile was added to dissolve the propafenone hydrochloride; and 5.67 mg of diclofenac sodium was weighed, and 1.783 mL of acetonitrile was added to dissolve the diclofenac sodium. 10 mM propafenone stock solution and 10 mM diclofenac stock solution were prepared respectively. • IV, 10 µL of the propafenone stock solution and 10 mL of the diclofenac stock solution were each added with 990 µL of acetonitrile to prepare 100 µM propafenone working solution and 100 µM diclofenac working solutions.
(§8) • a) 8 incubation plates were prepared, named T0, T5, T15, T30, T45, T60, Blank60 and NCF60, respectively. • b) 100 µL of microsome working solution was added to each of T0, T5, T15, T30, T45, T60, Blank60 and NCF60; 2 µL of the test (reference) working solution was added to each of T0, T5, T15, T30, T45, T60 and NCF60; and 2 µL of acetonitrile was added to Blank60. • c) T5, T15, T30, T45, T60, and Blank60 were pre-incubated in a 37°C water bath for 10 minutes. • d) 600 µL of the stop solution was added to the sample T0 to stop the reaction; and 98 µL of phosphate buffer solution (PBS) was added to NCF60, and NCF60 samples without the NADPH regeneration system were taken as negative control. • e) 98 µL of the working solution of the NADPH regeneration system was supplemented to the sample T0 that is stopped in the previous step; and after pre-incubation, 98 µL of the working solution of the NADPH regeneration system was added to each of T5, T15, T30, T45, T60, and Blank60 to initiate the reaction.

[7] = mouse, microsomes
Method: as §1, §2, §3, §4, §5, §6, §7, §8

[8] = read-out: Cell viability assay IC50 (nM)
[9] = read-out: Cell viability assay IC50 (nM), CTG assay, CellTiter Glo, read on Day 10, cell line not given
[10] = ADP-Glo assay, ATPase activity of Pol θ helicase domain, ssDNA substrate, read-out: Biochemical assay IC50
[11] = read-out: Cell viability assay IC50 (nM), CTG on Day 10, cell line not given (method: DLD1 and DLD1^-/- cells)
[12] = ADP-Glo, ssDNA substrate, 60 min at room temperature, read-out: Biochemical assay IC50
[13] = read-out: Biochemical assay IC50

T1 sequence (O75417 102-554 limits assumed): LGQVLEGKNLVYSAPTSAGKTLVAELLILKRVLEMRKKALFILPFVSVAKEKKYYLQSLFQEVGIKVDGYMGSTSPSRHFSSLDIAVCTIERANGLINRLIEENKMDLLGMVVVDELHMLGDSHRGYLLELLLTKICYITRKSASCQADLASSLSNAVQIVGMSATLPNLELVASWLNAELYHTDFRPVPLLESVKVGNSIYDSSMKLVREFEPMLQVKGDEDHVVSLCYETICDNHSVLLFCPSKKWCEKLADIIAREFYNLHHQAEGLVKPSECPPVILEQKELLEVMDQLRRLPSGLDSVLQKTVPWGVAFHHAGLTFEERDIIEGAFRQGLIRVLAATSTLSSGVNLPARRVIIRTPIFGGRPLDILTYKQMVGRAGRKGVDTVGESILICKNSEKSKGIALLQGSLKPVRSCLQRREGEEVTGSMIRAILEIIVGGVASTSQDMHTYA

**Q.** Which results are given for `COc1cnc(Cl)cc1-c1cc(C)ncc1C(=O)Nc1nc2ncc([C@H]3CC[C@H](O)CC3)cc2s1` [Example 27, 2'-chloro-N-(6-((1r, 4r)-4-hydroxycyclohexyl)thiazolo[4,5-b]pyridin-2-yl)-5'-methoxy-6-methyl-[4,4'-bipyridine]-3-carboxamide]?
**A.** IC50 [1, 8]: 500 to 1000 nM; IC50 [2]: 736 nM; IC50 ([3]; Biochemical assay IC50 (nM)): < 50 nM and 10.3 nM

**Q.** With `COc1cnc(C(F)F)cc1-c1cc(C)ncc1C(=O)Nc1nc2cnc(-c3c(C)noc3C)cc2s1` [Example 207] as the compound, how does the solubility at 2 h [4] read?
**A.** Its solubility at 2 h is 58.7 µM (≈ 30.7 µg/mL).

**Q.** And the IC50 [1, 9]?
**A.** Its IC50 is 8.57 nM.

**Q.** And the MRT ([5]; 30 mg/kg)?
**A.** Its MRT is 5.13 h.

**Q.** And the bioavailability ([5]; 30 mg/kg)?
**A.** The bioavailability was 311%.

**Q.** And the half-life ([5]; 30 mg/kg)?
**A.** Its half-life is 118 min.

**Q.** What about the “Time to peak” value ([5]; administration dose 30 mg/kg) of the same compound?
**A.** Its value is 1.67 h.

**Q.** And the “Area under curve (0-t; hr * ng/mL)” value ([5]; administration dose 30 mg/kg)?
**A.** The value was 581.387 µg·h/mL.

**Q.** What about the “Peak concentration” value ([5]; administration dose 30 mg/kg) of the same compound?
**A.** The value was 52444 ng/mL.

**Q.** What about the half-life at 1 µM [6] of the same compound?
**A.** Its half-life at 1 µM is 866 min.

**Q.** And the IC50 [3, 10]?
**A.** The IC50 was 3.41 nM.

**Q.** For `COc1cnc(Cl)c(F)c1-c1cc(C)ncc1C(=O)Nc1nc2cnc(-c3c(C)nnn3C)cc2s1` [Example 172], which solubility at 2 h [4] is on record?
**A.** Its solubility at 2 h is 63.7 µM (≈ 33.4 µg/mL).

**Q.** What about the MRT ([5]; 30 mg/kg) of the same compound?
**A.** The MRT was 5.91 h.

**Q.** And the bioavailability ([5]; 30 mg/kg)?
**A.** Its bioavailability is 206%.

**Q.** And the half-life ([5]; 30 mg/kg)?
**A.** The half-life was 306 min.

**Q.** What about the “Time to peak” value ([5]; administration dose 30 mg/kg) of the same compound?
**A.** Its value is 0.25 h.

**Q.** And the “Area under curve (0-t; hr * ng/mL)” value ([5]; administration dose 30 mg/kg)?
**A.** Its value is 429.051 µg·h/mL.

**Q.** What about the “Peak concentration” value ([5]; administration dose 30 mg/kg) of the same compound?
**A.** The value was 43555 ng/mL.

**Q.** And the IC50 [3, 10]?
**A.** The IC50 was 2.84 nM.

**Q.** And the “Half-life (T1/2, min)” value [7]?
**A.** The value was “∞”.

**Q.** With `COc1ccc(Cl)cc1-c1cc(C)ncc1C(=O)Nc1nc2ncc(-c3ccc(C#N)cc3)nc2s1` [Comparative Example 1, reference compound] as the compound, how does the solubility at 2 h [4] read?
**A.** Its solubility at 2 h is 2.35 µM (≈ 1.21 µg/mL).

**Q.** What about the IC50 [3, 10] of the same compound?
**A.** The IC50 was 6.91 nM.

**Q.** For `COc1cnc(Cl)cc1-c1cc(C)ncc1C(=O)Nc1nc2cnc(-c3c(C)cnn3C)cc2s1` [Example 87], which solubility at 2 h [4] is on record?
**A.** The solubility at 2 h was 79.7 µM (≈ 40.3 µg/mL).

**Q.** And the IC50 [1, 9]?
**A.** Its IC50 is 6.81 nM.

**Q.** What about the IC50 [1, 11] of the same compound?
**A.** The IC50 was less than 100 nM.

**Q.** And the MRT ([5]; 100 mg/kg)?
**A.** The MRT was 3.45 h.

**Q.** What about the half-life ([5]; 100 mg/kg) of the same compound?
**A.** Its half-life is 127 min.

**Q.** And the “Time to peak” value ([5]; administration dose 100 mg/kg)?
**A.** The value was 0.25 h.

**Q.** And the “Area under curve (0-t; hr * ng/mL)” value ([5]; administration dose 100 mg/kg)?
**A.** Its value is 300.735 µg·h/mL.

**Q.** What about the “Peak concentration” value ([5]; administration dose 100 mg/kg) of the same compound?
**A.** Its value is 74833 ng/mL.

**Q.** And the half-life at 1 µM [6]?
**A.** The half-life at 1 µM was 866 min.

**Q.** And the IC50 [3, 10]?
**A.** The IC50 was 1.91 nM.

**Q.** What about the IC50 [3, 12] of the same compound?
**A.** Its IC50 is less than 50 nM.

**Q.** With `COc1cnc(C(F)F)cc1-c1cc(C)ncc1C(=O)Nc1nc2cnc(-c3c(C)nnn3C)cc2s1` [Example 180, 2'-(difluoromethyl)-N-(6-(1,4-dimethyl-1H-1,2,3-triazol-5-yl)thiazolo[4,5-c]pyridin-2-yl) -5'-methoxy-6-methyl-[4,4'-bipyridine]-3-carboxamide] as the compound, how does the solubility at 2 h [4] read?
**A.** The solubility at 2 h was 91.1 µM (≈ 47.6 µg/mL).

**Q.** What about the IC50 [1, 9] of the same compound?
**A.** Its IC50 is 5.62 nM.

**Q.** What about the MRT ([5]; 30 mg/kg) of the same compound?
**A.** The MRT was 2.88 h.

**Q.** And the half-life ([5]; 30 mg/kg)?
**A.** Its half-life is 105 min.

**Q.** And the “Time to peak” value ([5]; administration dose 30 mg/kg)?
**A.** The value was 1.08 h.

**Q.** What about the “Area under curve (0-t; hr * ng/mL)” value ([5]; administration dose 30 mg/kg) of the same compound?
**A.** Its value is 176.788 µg·h/mL.

**Q.** What about the “Peak concentration” value ([5]; administration dose 30 mg/kg) of the same compound?
**A.** The value was 44133 ng/mL.

**Q.** And the IC50 [3, 10]?
**A.** The IC50 was 1.63 nM.

**Q.** What about the “Half-life (T1/2, min)” value [7] of the same compound?
**A.** Its value is “∞”.

**Q.** Which results are given for `COc1cnc(Cl)cc1-c1cc(C)ncc1C(=O)Nc1nc2c(s1)CNCC2` [Example 41, 2'-chloro-5'-methoxy-6-methyl-N-(4,5,6,7-tetrahydrothiazol[5,4-c]pyridin-2-yl)-[4,4'-bipyridine]-3-carboxamide]?
**A.** IC50 ([2]; CTG on Day 10, cell line not given (method: DLD1 and DLD1^-/- cells)): > 1000 nM; IC50 [3, 10]: 1240 nM; IC50 [3, 12]: > 500 nM

**Q.** With `COc1cnc(Cl)cc1-c1cc(C)ncc1C(=O)Nc1nc2cnc(C3=CCC(O)CC3)cc2s1` (centres unmarked) [Example 11] as the compound, how does the solubility at 2 h [4] read?
**A.** Its solubility at 2 h is 76.4 µM (≈ 38.8 µg/mL).

**Q.** And the IC50 [1, 9]?
**A.** Its IC50 is 11.2 nM.

**Q.** And the IC50 [1, 11]?
**A.** The IC50 was less than 100 nM.

**Q.** And the MRT ([5]; 25 mg/kg)?
**A.** Its MRT is 3.15 h.

**Q.** And the half-life ([5]; 25 mg/kg)?
**A.** Its half-life is 131 min.

**Q.** And the “Time to peak” value ([5]; administration dose 25 mg/kg)?
**A.** The value was 0.83 h.

**Q.** What about the “Area under curve (0-t; hr * ng/mL)” value ([5]; administration dose 25 mg/kg) of the same compound?
**A.** Its value is 26.324 µg·h/mL.

**Q.** What about the “Peak concentration” value ([5]; administration dose 25 mg/kg) of the same compound?
**A.** Its value is 7407 ng/mL.

**Q.** What about the half-life at 1 µM [6] of the same compound?
**A.** The half-life at 1 µM was 225 min.

**Q.** What about the IC50 [3, 10] of the same compound?
**A.** Its IC50 is 3.11 nM.

**Q.** And the IC50 [3, 12]?
**A.** The IC50 was less than 50 nM.

**Q.** Which IC50 [1, 8] does the source give for `COc1cnc(Cl)c(F)c1-c1cc(C)ncc1C(=O)Nc1nc2ccccc2s1` [Examples 39] here?
**A.** Its IC50 is 100 to 500 nM.

**Q.** And the IC50 [2]?
**A.** Its IC50 is 108 nM.

**Q.** What about the IC50 [3, 13] of the same compound?
**A.** Its IC50 is < 50 nM and 8.57 nM.

**Q.** With `COc1cnc(Cl)cc1-c1cc2cnc(C)n2cc1C(=O)Nc1nc2ccc(C3=CCC(O)CC3)nc2s1` (centres unmarked) [Example 55, 7-(2-chloro-5-methoxypyridin-4-yl)-N-(5-(4-hydroxycyclohex-1-en-1-yl)thiazol[5,4-b]pyridin-2-yl)-3-methylimidazol[1,5-a]pyridin-6-carboxamide] as the compound, how does the IC50 [1, 8] read?
**A.** Its IC50 is 100 to 500 nM.

**Q.** And the IC50 [2]?
**A.** Its IC50 is 112 nM.

**Q.** What about the IC50 ([3]; Biochemical assay IC50 (nM)) of the same compound?
**A.** The IC50 was < 50 nM and 28.7 nM.

**Q.** With `[2H]C([2H])([2H])c1cc(-c2cc(Cl)ncc2OC)c(C(=O)Nc2nc3ccc(N4CCC(O)CC4)nc3s2)cn1` [Example 109] as the compound, how does the IC50 [1, 8] read?
**A.** The IC50 was less than 100 nM.

**Q.** And the IC50 [2]?
**A.** Its IC50 is 147 nM.

**Q.** What about the IC50 ([3]; Biochemical assay IC50 (nM), ADP-Glo assay, ATPase activity of Pol θ helicase domain, ssDNA substrate) of the same compound?
**A.** The IC50 was 6.71 nM.

**Q.** What about the IC50 ([3]; Biochemical assay IC50 (nM), ADP-Glo, ssDNA substrate, 60 min at room temperature) of the same compound?
**A.** The IC50 was less than 50 nM.

**Q.** Which IC50 [1, 8] does the source give for `COc1cnc(Cl)cc1-c1cc(C)ncc1C(=O)Nc1nc2ccc(C3(O)CCC(O)CC3)cc2s1` (centres unmarked) [Examples 89] here?
**A.** Its IC50 is 100 to 500 nM.

**Q.** What about the IC50 [2] of the same compound?
**A.** The IC50 was 171 nM.

**Q.** And the IC50 [3, 13]?
**A.** Its IC50 is < 50 nM and 36.7 nM.
